{"source": "patent US20220008398A1", "about": "(priority 2018, published 2022)", "key": {"[1]": {"test_system": "drug-evoked expression of the immediate early gene c-fos, whole mouse brain", "source_text": "A unique and novel approach to preclinical testing of psychiatric drugs is based on the proposition that a direct readout of drug-evoked brain activation or inhibition in an animal is the most relevant preclinical assay, because psychiatric drugs exert their effects via activation or inhibition of specific neural circuits and cell types in the brain. […] The method called “pharmacomapping” (implemented by Certerra, Inc. Farmingdale, N.Y.) is based on a largely automated drug-screening platform that comprises whole-brain detection of drug-evoked neuronal activation represented by drug-evoked expression of the immediate early gene (IEG) c-fos (Herrera and Robertson 1996). Until now, the detection of c-fos as a marker of brain activation has been done by laborious methods of in situ hybridization or immunohistochemistry in brain tissue sections, followed by mounting the sections on microscopic slides, manual imaging, and largely visual quantification. Nevertheless, over the last two decades a number of studies used these methods to test drug-evoked activity in the mouse or rat brain for various psychoactive medications, including antipsychotics, antidepressants, stimulants and anxiolytics (Engber et al., 1998; Kiss, 2018; Salminen et al., 1996; SEMBA et al., 1996; Slattery et al., 2005; Sumner et al., 2004).\nIn contrast to the older methods, the pharmacomapping method uses automated and standardized whole-brain immunostaining and brain clearing together with advanced microscopy (light-sheet fluorescence microscopy, LSFM), computational (e.g. machine learning) and statistical methods (FIG. 1). The first generation of this platform used serial two-photon tomography (STPT) as a method for imaging and c-fos-GFP mice expressing green fluorescent protein (GFP) under the control of the c-fos promoter (US 20140297199A1)."}, "[2]": {"test_system": "time spent floating (immobility) in forced swim", "assay": "Forced swim test", "type": "in vivo", "conditions": "mouse, single dose 10 mg/kg, 1 hour and 24 hours after drug delivery, vs vehicle treated control group", "method": "The forced swim test is a frequently used behavioral protocol with a well-established therapeutic predictability for a broad range of antidepressants including ketamine (Porsolt et al. 1977; Cryan and Mombereau 2004; Cryan et al. 2005; Lucki et al. 2001). In this test the mouse is put in a beaker filled with water and the time spent struggling, swimming and floating is measured, with the time spent floating—when the mouse stops struggling to swim—being used as a behavioral correlate of depression."}, "[3]": {"test_system": "severe major depressive disorder", "conditions": "490 patients, daily oral gaboxadol 5 mg or 10 mg added to escitalopram 20 mg; cited from earlier work"}, "[4]": {"test_system": "sleep onset and sleep maintenance", "conditions": "three-month efficacy study, insomnia; cited from earlier work"}, "[5]": {"test_system": "combined delta, theta and alpha activity", "conditions": "160 minutes after administration; cited from earlier work"}, "[6]": {"test_system": "suicidal ideation in major depressive disorder", "assay": "Prospective randomized clinical trial of oral gaboxadol versus ketamine in patients at risk of suicide"}, "[7]": {"conditions": "acute single dose 10 mg/kg, 10 mg/kg"}, "[8]": {"conditions": "gaboxadol group vs ketamine group"}}, "note": "Entries after “also recorded” stand apart in the source; their conditions may differ. Where two headings read alike, the source gives them in different places."}
{"molecule": "CNC1(c2ccccc2Cl)CCCCC1=O", "note": "(centres unmarked) [ketamine]", "values": [{"measurement": "drug-evoked brain activation (pharmacomap)", "setting": "[1]; 6 mg/kg alone", "value": "neither gaboxadol at 3 mg/kg nor ketamine at 6 mg/kg alone evoked any brain activation detectable"}, {"measurement": "drug-evoked brain activation (pharmacomap)", "setting": "[1]; acute single dose 5 mg/kg", "value": "modest activation"}, {"measurement": "drug-evoked brain activation (pharmacomap)", "setting": "[1]; [7]", "value": "very robust and broad activation; also recorded: very broad activation pattern"}, {"measurement": "drug-evoked brain activation (pharmacomap)", "setting": "[1]; acute single dose 100 mg/kg", "value": "modest activation"}, {"measurement": "time spent floating (immobility) during 6 min forced swim", "setting": "[2]", "value": "significantly decreases the time the drug treated mice spent floating; also recorded: significantly reduced the time spent in floating (immobility)"}]}
{"molecule": "Oc1noc2c1CCNC2", "note": "[gaboxadol, 4,5,6,7-tetrahydroisoxazolo [5,4-c]pyridine-3-ol]", "values": [{"measurement": "drug-evoked brain activation (pharmacomap)", "setting": "[1]; 3 mg/kg alone", "value": "neither gaboxadol at 3 mg/kg nor ketamine at 6 mg/kg alone evoked any brain activation detectable"}, {"measurement": "drug-evoked brain activation (pharmacomap)", "setting": "[1]; [7]", "value": "very similar brain activation as ketamine"}, {"measurement": "drug-evoked brain activation (pharmacomap)", "setting": "[1]; acute single dose 10 mg/kg, listed as Gaboxadol, 10 mg/kg", "value": "broad brain activation that is highly similar to that of ketamine"}, {"measurement": "time spent floating (immobility) during 6 min forced swim", "setting": "[2]", "value": "nearly identical behavioral effect as the ketamine group; also recorded: significantly reduced the time spent in floating (immobility)"}, {"measurement": "benefit in treatment of severe major depressive disorder", "setting": "[3]", "value": "no additional benefit"}, {"measurement": "effects in sleep onset and sleep maintenance", "setting": "[4]", "value": "failed to show significant effects in sleep onset and sleep maintenance"}, {"measurement": "whole head MEG planar gradiometer increase in combined delta, theta and alpha activity", "setting": "[5]", "value": "≥ +3"}, {"measurement": "day 1 POMS total mood disturbance score", "setting": "[6]; [8]", "value": "greater improvement in the gaboxadol group compared with the ketamine group"}, {"measurement": "decrease in suicidal ideation at 230 minutes", "setting": "[6]; [8]", "value": "greater in the gaboxadol group compared with the ketamine group"}, {"measurement": "proportion of responders on the SSI at day 1", "setting": "[6]; [8]", "value": "significantly higher in the gaboxadol group than the ketamine group"}, {"measurement": "Cohen's d for the difference in mean group change (SSI)", "setting": "[6]; gaboxadol group vs ketamine group, baseline to day 1", "value": "greater than medium effect size"}, {"measurement": "average SSI score at day 1", "setting": "[6]; gaboxadol hydrochloride 0.85 mg/kg oral vs ketamine 0.5 mg/kg infusion, 24 hours", "value": "lower in the gaboxadol group compared with the ketamine group"}]}
